Test results from patent publication US20250161299A1, “ORAL PCLX-001 IN THE TREATMENT OF HUMAN CANCER” (PACYLEX PHARMACEUTICALS INC., priority 2022, published 2025).
Entries after “also recorded” stand apart in the source; their conditions may differ. Like-named read-outs stand apart in the source and are kept apart here.

How the values were obtained:
[1] = tested on: Bruton tyrosine kinase (BTK); details: models of human lymphoma; cited from earlier work
[2] = tested on: Prostate cultured human cancer cells; details: second panel, mean among sensitive cell lines, read-out: IC50 mean +/− SD; cited from earlier work
[3] = PK and maximally tolerated dose, daily oral administration, mouse; type: in vivo
Experimental: (§1) The allometric scaling is based on toxicity, and the toxicity is that which establishes the Maximally Tolerated Dose (MTD) in animal studies. In mice, one toxicity study established the MTD to be 35 mg/kg. […] It was not expected that, as shown herein, doses markedly lower than 180 mg daily in humans would have anticancer effects.
[…]. Possible explanations for this finding include hysteresis loops (7), and flip-flop pharmacokinetics (7).
(§2) Allometric scaling is a means by which PK results from animal studies can be used to predict human drug exposure for a range of drug doses. In this case, allometric scaling was performed using representative values from the PK studies with daily oral PCLX-001 administration for 14 or 28 days in non-human species. These inputs were analyzed with www.truedose.app to predict the Maximally Tolerated Dose we would see in this phase one clinical trial (FIG. 2). […]

[4] = Oral bioavailability in animal models; type: in vivo
[5] = Animal (GLP) non-clinical safety testing; type: in vivo
Description: PCLX-001 (FIG. 1) is a potent, small molecule inhibitor of human NMT1 and NMT2 proteins.

[6] = Phase I trial toxicity assessment (dose limiting toxicities, CTCAE version 5.0); type: in vivo, human; details: for hematopoietic profile and biochemistry / protocol defined dose limiting toxicities: 20 mg oral daily
Experimental: The subjects were assessed for toxicity using daily diary entries, clinical assessments at baseline, day 8, day 15, day 22, and day 28. Dose limiting toxicities were DLTs defined as the following cycle 1 CTCAE version 5.0 adverse events: Gr 4 platelets, Gr≥3 platelets with bleeding and/or transfusions, Gr 4 ANC for ≥7 days, Gr≥3 febrile neutropenia, and Gr≥3 non-hematological toxicity.

[7] = GLP non-clinical safety testing; cited from earlier work
[8] = tested on: kinases (KINOMEscan); details: KINOMEscan (Fremont, CA, USA); cited from earlier work
[9] = tested on: Breast cultured human cancer cells; details: mean among sensitive cell lines, cited from earlier work
[10] = tested on: Colon cultured human cancer cells; details: mean among sensitive cell lines, read-out: IC50 mean +/− SD, cited from earlier work
[11] = in vivo; details: rat, plasma, po
[12] = tested on: implanted human tumors; details: cited from earlier work
[13] = Allometric scaling from animal maximally tolerated doses to predict human daily oral MTD (www.truedose.app)
Experimental: as §1, with “mg/kg. […].” for “mg/kg.”
as §2

[14] = tested on: Lymphoma cultured human cancer cells; details: mean among sensitive cell lines, cited from earlier work; for IC50: read-out: IC50 mean +/− SD
[15] = tested on: DLBCL / soft tissue sarcoma in patients; assay: Phase I trial efficacy assessment (CT/PET imaging, Lugano criteria, RECIST); type: in vivo, human
Experimental: Patients 1 and 2 had baseline cross sectional and PET imaging, and patient 3 had baseline cross sectional imaging. Protocol defined imaging was CT every 2 cycles and PET every 6 cycles or as clinically indicated. Evaluation of response was by the Lugano classification criteria for the evaluation of non-Hodgkin lymphoma, and […] for the evaluation of soft tumors. Computed tomography was performed on patient 2 on two occasions, immediately prior to treatment (pre-treatment scan obtained Oct. 29, 2021) and after two 28-day cycles of oral PCLX-001 at a daily dose of 20 mg by mouth (post-treatment scan obtained Dec. 30, 2021). Both scans were done on the same scanner using the same techniques including the use of intravenous contrast dye. The three pairs of pre and post treatment scans are of the same cross section of the patient, in order to identify a clinical trial target lesion of a liver metastasis in the subcapsular region of segment five of the liver. […] FIG. 2A-4F.

[16] = tested on: Neuroblastoma cultured human cancer cells; details: second panel, mean among sensitive cell lines, read-out: IC50 mean +/− SD; cited from earlier work
[17] = tested on: Leukemia cultured human cancer cells; details: mean among sensitive cell lines, cited from earlier work
[18] = tested on: Stomach cultured human cancer cells; details: second panel, mean among sensitive cell lines, read-out: IC50 mean +/− SD; cited from earlier work
[19] = in vivo; details: dog, plasma, po
[20] = first panel, read-out: EC50 mean +/− SD
[21] = second panel, read-out: IC50 mean +/− SD

Cc1c(NS(=O)(=O)c2c(Cl)cc(-c3ccnc(N4CCNCC4)c3)cc2Cl)c(CC(C)C)nn1C [PCLX-001, 2,6-dichloro-N-(3-isobutyl-1,5-dimethyl-1H-pyrazol-4-yl)-4-(2-(piperazin-1-yl)pyridin-4-yl)benzene sulfonamide]
BTK modification and downstream signaling [1]: profoundly inhibited | IC50 [2]: 85.4 ± 59.2 nM | Maximally Tolerated Dose daily oral administration [3]: 35 mg/kg | Cmax ([3]; in vivo, po): 46000 ng/mL | half-life ([3]; in vivo, po): 1.6 h | oral bioavailability [4]: complete oral bioavailability | cardiac conduction [5]: no cardiac conduction issues | hematopoietic profile and biochemistry ([6]; Patient 1): remained normal; also recorded: no evidence of toxicity | protocol defined dose limiting toxicities ([6]; Patient 1, 28 day cycle): did not experience any dose limiting toxicities; also recorded: no protocol defined dose limiting toxicities | hematopoietic profile and biochemistry ([6]; Patient 2): remained normal | protocol defined dose limiting toxicities ([6]; Patient 2): no protocol defined dose limiting toxicities | drug related toxicities ([6]; Patient 3, daily PCLX-001, two 28 day cycles): No drug related toxicities were identified | dose limiting toxicity [7]: diarrhea was dose limiting | off target kinase inhibition [8]: no significant off target kinase inhibition | EC50 [9, 20]: 101 ± 96.4 nM | IC50 [9, 21]: 161 ± 47.9 nM | IC50 ([10]; second panel): 158 ± 27.4 nM | IC50 ([10]; third panel): 210 ± 85.4 nM | Cmax [11]: 3110 ng/mL | half-life [11]: 1 h | anticancer activity in mice bearing human cancers ([12]; 10 mg/kg or lower): no evident anticancer activity | anti-cancer effects in mice with implanted human tumors ([12]; 35 mg/kg and higher doses): had anti-cancer effects | response of human cancers grown in immunodeficient mice ([12]; preclinical studies): complete remissions | Allometric prediction of human MTD ([13]; scaled from dog MTD): 137 mg mg/70 kg | Allometric prediction of human MTD ([13]; scaled from mouse MTD): 180 mg mg/70 kg | Allometric prediction of human MTD ([13]; scaled from rat MTD): 1300 mg mg/70 kg | EC50 [14, 20]: 80.9 nM | IC50 ([14]; second panel): 138 ± 55.8 nM | IC50 ([14]; third panel): 230 ± 107 nM | disease response (Lugano criteria, computed tomography day 28) ([15]; Patient 1, refractory relapsed DLBCL, 20 mg oral daily): disease progression; also recorded: progression of the volume of lymphoma | response in lymph nodes ([15]; Patient 2, DLBCL, 20 mg oral daily): progressive disease in lymph nodes | response of hepatic metastatic disease on CT ([15]; Patient 2, DLBCL, 20 mg oral daily, about two months): marked reduction of volume of hepatic metastatic disease; also recorded: marked tumor response in hepatic metastases; also recorded: marked tumor regression; also recorded: regression of a malignant lesion in the liver | response assessment scans ([15]; Patient 3, leiomyosarcoma, after two 28 day cycles): progressive disease | IC50 [16]: 230 ± 183 nM | EC50 [17, 20]: 97.9 ± 81.3 nM | IC50 [17, 21]: 189 ± 87.8 nM | IC50 [18]: 120 ± 48.2 nM | Cmax [19]: 650 ng/mL | half-life [19]: 3.8 h
